Source: US20060223790A1, “Modulation of Microglial by Nicotinic Medications” (University of South Florida, priority 2004, published 2006)

How the values were obtained:
APP transgenic mice = conditions: cited from earlier work; for Aβ deposition: APP transgenic mice
[1] = system: primary cultured microglial cells; assay type: cell-based, mouse
[2] = system: primary cultured microglial cells; assay type: cell-based, mouse; remark: listed apart in the source
microglia = conditions: cited from earlier work
p44/42 MAPK = assay type: cell-based, mouse

Oc1c(I)cc(Cl)c2cccnc12 [clioquinol]
Aβ deposition (APP transgenic mice): reduced

CN1CCCC1c1cccnc1 (stereo not shown) [nicotine]
HIV-1 gp120/IFN-Υ-induced TNF-α production [1]: slight reduction | HIV-1 gp120/IFN-Υ-induced NO release [2]: slight reduction | LPS-induced TNF-α release (microglia): inhibit | microglial activation induced by bacterial endotoxin (LPS) (microglia): reduced | reduction in β-amyloid plaque (APP transgenic mice; mouse, in vivo): comparable

COc1cc(/C=C/C(=O)CC(=O)/C=C/c2ccc(O)c(OC)c2)ccc1O [curcumin]
Aβ deposition (APP transgenic mice): reduced

CC(C)Cc1ccc(C(C)C(=O)O)cc1 (stereo not shown) [ibuprofen]
Aβ deposition (APP transgenic mice): reduced

α-bungarotoxin
effect on galantamine/nicotine inhibition of microglial NO release [2]: significantly attenuates | effect on galantamine/nicotine inhibition of phosphorylation of p44/42 MAPK (p44/42 MAPK): significantly attenuated
